Results from patent US7772262B2, “Substituted benzoylguanidines, method for production and use thereof as medicament or diagnostic and medicament comprising the same” (sanofi-aventis Deutschland GmbH, priority 2004, dated 2010).
Counter-ions that a name gives are not always drawn.

molecular target: T1, human NHE-1 (Homo sapiens, UniProt P19634); assay: NHE-1 inhibition, FLIPR assay of pHi recovery in transfected cell lines; assay type: cell-based; conditions: transfected LAP-1 cell line expressing human NHE-1, read-out: NHE1 inhibition IC50
T1 construct: expressed in transfected cells
T1 sequence (P19634 whole entry): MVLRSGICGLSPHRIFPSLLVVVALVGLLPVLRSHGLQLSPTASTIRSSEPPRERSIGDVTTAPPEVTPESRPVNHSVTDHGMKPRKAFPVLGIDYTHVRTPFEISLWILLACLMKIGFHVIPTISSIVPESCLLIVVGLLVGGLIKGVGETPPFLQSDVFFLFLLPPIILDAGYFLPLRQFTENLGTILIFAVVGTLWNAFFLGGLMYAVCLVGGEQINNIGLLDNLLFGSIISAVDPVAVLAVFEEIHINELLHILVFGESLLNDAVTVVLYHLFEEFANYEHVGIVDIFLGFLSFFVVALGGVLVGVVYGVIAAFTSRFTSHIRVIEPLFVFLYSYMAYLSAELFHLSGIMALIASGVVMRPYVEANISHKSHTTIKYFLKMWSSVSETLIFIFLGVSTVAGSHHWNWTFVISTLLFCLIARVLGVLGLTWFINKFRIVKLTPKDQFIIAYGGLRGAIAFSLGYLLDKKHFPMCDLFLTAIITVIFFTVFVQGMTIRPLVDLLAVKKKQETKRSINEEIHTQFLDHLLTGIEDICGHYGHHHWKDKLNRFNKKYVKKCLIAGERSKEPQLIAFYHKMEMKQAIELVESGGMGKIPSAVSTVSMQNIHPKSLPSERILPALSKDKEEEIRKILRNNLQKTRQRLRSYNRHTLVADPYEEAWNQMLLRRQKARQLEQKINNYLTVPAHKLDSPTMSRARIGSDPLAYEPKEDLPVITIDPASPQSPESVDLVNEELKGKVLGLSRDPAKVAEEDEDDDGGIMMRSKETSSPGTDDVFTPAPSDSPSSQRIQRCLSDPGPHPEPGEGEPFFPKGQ
Description: Determination of the NHE Inhibition
The inhibitory concentration IC50 for NHE-1 inhibition was determined as follows:
IC50 for NHE-1 inhibition was determined in an FLIPR assay by measurement of the pHi recovery in transfected cell lines which express human NHE-1.
The assay was carried out in an FLIPR (fluorometric imaging plate reader) with black-walled 96-well microtiter plates with clear bases.
The growth medium for the transfected cells (Iscove+10% fetal calf serum) additionally contained G418 as selection antibiotic in order to ensure the presence of the transfected sequences.
The actual assay started with the removal of the growth medium and addition of 100 μl of loading buffer per well (5 μM BCECF-AM [2′,7′-bis(carboxyethyl)-5- (and -6-)carboxyfluorescein, acetoxymethyl ester] in 20 mM NH4Cl, 115 mM choline chloride, 1 mM MgCl2, 1 mM CaCl2, 5 mM KCl, 20 mM HEPES, 5 mM glucose; pH 7.4 [adjusted with KOH]). The cells were then incubated at 37° C. for 20 minutes. This incubation led to loading of the cells with the fluorescent dye whose fluorescence intensity depends on pHi, and with NH4Cl which made the cells slightly alkaline.
The nonfluorescent dye precursor BCECF-AM is, as ester, membrane-permeable. The actual dye BCECF is not membrane-permeable but is liberated inside cells by esterases.
After this incubation for 20 minutes, the loading buffer which contained NH4Cl and free BCECF-AM was removed by washing three times in a cell washer (Tecan Columbus) with in each case 400 μl of washing buffer (133.8 mM choline chloride, 4.7 mM KCl, 1.25 mM MgCl2, 1.25 mM CaCl2, 0.97 mM K2HPO4, 0.23 mM KH2PO4, 5 mM HEPES, 5 mM glucose pH 7.4 [adjusted with KOH]). The residual volume which remained in the wells was 90 μl (50-125 μl possible). This washing step removed the free BCECF-AM and resulted, as a consequence of the removal of the external NH4^+ ions, in intracellular acidification (˜pHi 6.3-6.4).
This may eventually lead to cell death if it persists long enough.
It was important at this point that the washing buffer was sodium-free (<1 mM) because extracellular sodium ions would lead to an instantaneous recovery of the pHi through the activity of the cloned NHE isoforms. It was likewise important for all the buffers used (loading buffer, washing buffer, recovery buffer) not to contain any HCO3^− ions, because the presence of bicarbonate would lead to activation of interfering bicarbonate-dependent pHi regulatory systems present in the parental LAP-1 cell line.
The microtiter plates with the acidified cells were then (up to 20 minutes after the acidification) transferred to the FLIPR. In the FLIPR, the intracellular fluorescent dye was excited by light with a wavelength of 488 nm generated by an argon laser, and the measured parameters (laser power, illumination time and aperture of the CCD camera incorporated in the FLIPR) were chosen so that the average fluorescence signal per well was between 30 000 and 35 000 relative fluorescence units.
The actual measurement in the FLIPR started with a photograph being taken by the CCD camera every two seconds under software control. After ten seconds, the recovery of the intracellular pH was initiated by adding 90 μl of recovery buffer (133.8 mM NaCl, 4.7 mM KCl, 1.25 mM MgCl2, 1.25 mM CaCl2, 0.97 mM K2HPO4, 0.23 mM KH2PO4, 10 mM HEPES, 5 mM glucose; pH 7.4 [adjusted with NaOH]) by means of the 96-well pipettor incorporated in the FLIPR.
Positive control wells (100% NHE activity) were those to which pure recovery buffer is added, while negative controls (0% NHE activity) received washing buffer. Recovery buffer with twice the concentration of test substance was added to all the other wells. Measurement in the FLIPR terminated after 60 measurements (two minutes).
The raw data are exported into the ActivityBase program. This program firstly calculates the NHE activities for each tested substance concentration and, from these, the IC50 values for the substances. […]

IC50 [µM] | SMILES
1.52 | Cc1cc(N2CCCN(C3CC3)S2(=O)=O)c(S(C)(=O)=O)cc1C(=O)N=C(N)N [Example 12, N-[4-(6-Cyclopropyl-1,1-dioxo-1-[1,2,6]thiadiazinan-2-yl)-5-methanesulfonyl-2-methlbenzoyl]guanidine]
0.02 | NC(N)=NC(=O)c1ccc(N2CCCS2(=O)=O)c(C(F)(F)F)c1 [Example 13, N-[4-(1,1-Dioxo-1-isothiazolidin-2-yl)-3-trifluoromethyl-benzoyl]guanidine]
0.013 | NC(N)=NC(=O)c1ccc(N2CCCCS2(=O)=O)c(C(F)(F)F)c1 [Example 14, N-[4-(1,1-Dioxo-1-[1,2]thiazinan-2-yl)-3-trifluoromethyl-benzoyl]guanidine]
0.051 | Cc1cc(N2CC(c3ccccc3)CCS2(=O)=O)c(S(C)(=O)=O)cc1C(=O)N=C(N)N (stereo not shown) [Example 10, N-[4-(1,1-Dioxo-4-phenyl-1-[1,2]thiazinan-2-yl)-5-methanesulfonyl-2-methylbenzoyl]guanidine]
0.113 | Cc1cc(N2CCN(C3CC3)S2(=O)=O)c(S(C)(=O)=O)cc1C(=O)N=C(N)N [Example 11, N-[4-(5-Cyclopropyl-1,1-dioxo-1-[1,2,5]thiadiazolidin-2-yl)-5-methanesulfonyl-2-methlbenzoyl]guanidine]

Second part, the compound before the results:

SMILES | IC50 [µM]
Cc1cc(N2CC(c3ccc(F)cc3)CS2(=O)=O)c(S(C)(=O)=O)cc1C(=O)N=C(N)N (single isomer, unassigned; enantiomer a) [Example 8, N-{4-[4-(4-Fluorophenyl)-1,1-dioxoisothiazolidin-2-yl]-5-methanesulfonyl-2-methlbenzoyl}guanidine, hydrochloride, enantiomer A] | 0.012
Cc1cc(N2CCCS2(=O)=O)c(S(C)(=O)=O)cc1C(=O)N=C(N)N [Example 1, N-[4-(1,1-Dioxoisothiazolidin-2-yl)-5-methanesulfonyl-2-methyl-benzoyl]guanidine] | 0.038
Cc1cc(N2CCCCS2(=O)=O)c(S(C)(=O)=O)cc1C(=O)N=C(N)N [Example 2, N-[4-(1,1-Dioxo-[1,2]thiazinan-2-yl)-5-methanesulfonyl-2-methylbenzoyl]guanidine] | 0.144
Cc1cc(N2CC(c3ccccc3)CS2(=O)=O)c(S(C)(=O)=O)cc1C(=O)N=C(N)N (single isomer, unassigned; enantiomer a) [Example 5, N-[4-(1,1-Dioxo-4-phenylisothiazolidin-2-yl)-5-methanesulfonyl-2-methylbenzoyl]guanidine, hydrochloride, enantiomer A] | 0.013
Cc1cc(N2C(C)(C)CCS2(=O)=O)c(S(C)(=O)=O)cc1C(=O)N=C(N)N [Example 3, N-[4-(3,3-Dimethyl-1,1-dioxoisothiazolidin-2-yl)-5-methanesulfonyl-2-methylbenzoyl]guanidine,] | 0.195
Cc1cc(N2CC(c3ccccc3)CS2(=O)=O)c(S(C)(=O)=O)cc1C(=O)N=C(N)N (stereo not shown) [Example 4, N-[4-(1,1-Dioxo-4-phenylisothiazolidin-2-yl)-5-methanesulfonyl-2-methylbenzoyl]guanidine, hydrochloride] | 0.006
Cc1cc(N2CC(c3ccc(F)cc3)CS2(=O)=O)c(S(C)(=O)=O)cc1C(=O)N=C(N)N.Cl (single isomer, unassigned; enantiomer b) [Example 9, N-{4-[4-(4-Fluorophenyl)-1,1-dioxoisothiazolidin-2-yl]-5-methanesulfonyl-2-methylbenzoyl}guanidine, hydrochloride, enantiomer B] | 0.023
Cc1cc(N2CC(c3ccc(F)cc3)CS2(=O)=O)c(S(C)(=O)=O)cc1C(=O)N=C(N)N (stereo not shown) [Example 7, N-{4-[4-(4-Fluorophenyl)-1,1-dioxoisothiazolidin-2-yl]-5-methanesulfonyl-2-methylbenzoyl}guanidine, hydrochloride] | 0.019
Cc1cc(N2CC(c3ccccc3)CS2(=O)=O)c(S(C)(=O)=O)cc1C(=O)N=C(N)N (single isomer, unassigned; enantiomer b) [Example 6, N-[4-(1,1-Dioxo-4-phenylisothiazolidin-2-yl)-5-methanesulfonyl-2-methylbenzoyl]guanidine, hydrochloride, enantiomer B] | 0.045

tested on: not listed separately; assay: In vivo pharmacokinetics, "n in one method", i.v. bolus in beagle dog; conditions: iv; fasting male beagle dog, single i.v. bolus into jugular vein, about 1 mg/kg, plasma, co-administered (n in one)
Description: In vivo pharmacokinetics—profiling with the “n in one method”
The exposure data and the half-life were determined as characteristic pharmacokinetic data as follows:
The NHE-1 inhibitor of Example 9 of the invention and, as reference substance, the known NHE-1 inhibitor cariporide with the formula
[drawing 23] were dissolved in an aqueous, slightly acidic medium (water, pH 4, adjusted with 1M hydrochloric acid). The concentration of the aqueous formulation prepared in this way was about 1.5 mg of each substance per 1 g of solution. 10 ml of this formulation were administered as a single bolus by catheter into the jugular vein of a fasting male beagle dog (dose about 1 mg of each substance administered per kg of the dog's body weight). […]
The plasma samples were worked up and, after an HPLC separation, quantified by MS/MS. […] The exposures could be calculated using the WinNonlin computer program from the concentration-time plots (see FIG. 1) and compared with the exposure of the known NHE-1 reference substance. Since the various substances were measured in the same animal at the same time, the result was an accurate comparison of the compounds, and a ranking of the volumes of distribution was possible.

half-life [h] | SMILES
3.3 | CC(C)c1ccc(C(=O)N=C(N)N)cc1S(C)(=O)=O.CS(=O)(=O)O [cariporide, reference compound]
4.6 | Cc1cc(N2CC(c3ccc(F)cc3)CS2(=O)=O)c(S(C)(=O)=O)cc1C(=O)N=C(N)N.Cl (single isomer, unassigned; enantiomer b) [Example 9, N-{4-[4-(4-Fluorophenyl)-1,1-dioxoisothiazolidin-2-yl]-5-methanesulfonyl-2-methylbenzoyl}guanidine, hydrochloride, enantiomer B]
